Assay results as given in paper PMC4007625, “A phase I study of AST1306, a novel irreversible EGFR and HER2 kinase inhibitor, in patients with advanced solid tumors” (Journal of Hematology & Oncology, 2014).

Tests used:
clinical = conditions: human, in vivo; for AUC(0-inf): AUC0-∞
Procedure: This was the first-in-human phase I dose-escalation study of AST1306 for patients with advanced solid tumors. AST1306 was orally administered without food for one day followed by two days off to evaluate single dose PK profiles. After that, it was continuously administered for 21 days and two days off to assess multiple dose PK profiles and safety. […] Three times daily in three dose levels (800 mg TID, 1000 mg TID and 1200 mg TID) were explored subsequently. Treatment was then repeated at the same dose level in 28-day cycles until unacceptable toxicities, disease progression or the patient’s withdrew from the study. PK extension study was performed to enroll additional patients up to at least eight patients per dose cohort in three dose levels (MTD, one or two doses level lower than the MTD) for further evaluation of PK profiles.
All PK sampling was performed in the first cycle. Plasma concentrations of AST1306 single-day dosing were determined at the following distinct time points: pre-dose, 0.5 h, 1 h, 1.5 h, 2 h, 3 h, 4 h, 6 h, 8 h, 10 h, 12 h, 24 h, 36 h, and 48 h after the single dose administration in the 400 mg QD and 800 mg QD dose cohorts. For the next five dose cohorts with twice daily (once every 12 hours) administration, the time points of plasma sample collection were as follows: pre-dose, 0.5 h, 1 h, 1.5 h, 2 h, 3 h, 4 h, 6 h, 8 h, and 12 h after the first dose administration, and pre-dose, 1 h, 2 h, 3 h, 4 h, 6 h, 8 h, 12 h, and 24 h after the second dose administration. Three dose cohorts with three times daily (once every 8 hours) administration were further investigated with distinct time points for plasma collecting (pre-dose, 0.5 h, 1 h, 1.5 h, 2 h, 3 h, 4 h, 6 h, and 8 h after the first dose administration; 1 h, 2 h, 3 h, 4 h, 5 h, 6 h, and 8 h after the second dose administration; 1 h, 2 h, 3 h, 4 h, 8 h, 12 h, 24 h, and 36 h after the third dose administration). PK parameters of AST1306 were also determined on days 10, 23 (pre-dose and 2 h after the first dosing), and 24 (steady state, the same time points as the first-day dosing) of continuous treatment. The PK sampling schedule for the PK extension phase was totally the same as that for the dose escalation study.
PK analysis was conducted using Phoenix WinNonlin® software (version 6.1, Pharsight, Mountainview, CA). Standard non-compartmental methods were used to calculate the area under the plasma concentration-time curve over the time interval from 0 to 24 h (AUC0–24,ss), maximum measured concentration of the analyte in plasma (Cmax), and terminal half-life of the analyte in plasma (t1/2). Time from dosing to the maximum concentration of the analyte in plasma (tmax,) was reported as a median value. The concentration at the trough level was determined using the concentration at 24 h (C24) on steady state days.
The power model method was used to assess the dose proportionality. The differences between fed and fasting conditions were assessed by ANOVA, and 90% confidence intervals for ratios were given.

[1] = system: human tumor xenograft models that expressed or overexpressed HER family members; set-up: method as in PMID 21789172; conditions: especially HER2 overexpression or EGFR T790M mutant tumors; cited from earlier work
HER2 = system: HER2; set-up: method as in PMID 21789172, PMID 18408761, PMID 15728811, PMID 15737014, PMID 17085664; conditions: preclinical; read-out: IC50 inhibiting HER2; cited from earlier work
[2] = Food-effect study, two-way crossover, single dose; assay type: in vivo, human; conditions: for apparent oral clearance (CL/F) / Tmax / AUC(0-inf) / AUC(0-t) / Cmax / half-life: 1000 mg single oral dose; for apparent oral clearance (CL/F) / AUC(0-inf) / AUC(0-t) / Cmax / half-life: geometric mean (range); for Tmax / AUC(0-inf) / AUC(0-t) / Cmax / half-life: plasma, po; for Tmax: (range); for half-life: read-out: t1/2z (converted)
Procedure: Figure S1). On day 1, 6 subjects were fasted and 6 were fed, and all 12 subjects received a single dose of AST1306. […] On “fasting” days (day 1 or 4), subjects were required to fast for a minimum of 2 h prior to dosing, and for at least 1 h post-dosing. […] PK sampling then took place on day 1 and day 4. The PK sampling time points were pre-dose, 0.5, 1, 1.5, 2, 2.5, 3, 4, 6, 8, 12, and 24 hours after dosing. The power model method was used to assess the dose proportionality.

[3] = human, 1000 mg, fed, high-fat breakfast (n =12)

Q: Which results are given for `C=CC(=O)Nc1ccc2ncnc(Nc3ccc(OCc4cccc(F)c4)c(Cl)c3)c2c1` [AST1306]?
A: Tmax (clinical): 2.65 (43.8) h; multiple-dose vs single-dose exposure (mean accumulation ratio R, AUCss day 23–24 / AUC0-24h day 1) (clinical): no more than 3 fold; t1/2z (clinical): 5.56 (51.6) h; AUC0-24 h (clinical; 400 mg): 116 ng·h/mL; AUC0-∞ (clinical; 400 mg): 119 ng·h/mL; AUC(0-t) (clinical; 400 mg): 116 ng·h/mL; Cmax (clinical; 400 mg): 22.6 ng/mL; R_AUC (accumulation ratio, AUCss days 23–24 / AUC0-24h day 1) (clinical; 400 mg): 2.81; Tmax (clinical; 400 mg): 2.00 h; t1/2z (clinical; 400 mg): 4.66 h; λz (clinical; 400 mg): 0.149 h⁻¹; Cmax3 (clinical; 600 mg): 64.5 (69.4) ng/mL; Cmax (clinical; 800 mg): 50.0 (16.0) ng/mL; Cmax2 (clinical; 800 mg): 74.3 (20.4) ng/mL; Cmax (clinical; 800 mg, Cmax): 67.7 ng/mL; AUC0-24 h (clinical; 1000 mg): 696 (57.6) h*ng/mL; AUC0-∞ (clinical; 1000 mg): 792 (54.1) h*ng/mL; AUC(0-t) (clinical; 1000 mg): 781 (54.7) h*ng/mL; Cmax (clinical; 1000 mg): 75.0 (52.1) ng/mL; Cmax3 (clinical; 1000 mg): 89.7 (42.1) ng/mL; AUC(0-t) (clinical; 1000 mg, AUC0-24 h): 1130 ng·h/mL; AUC(0-t) (clinical; 1000 mg, AUC0-t): 1420 ng·h/mL; AUC(0-inf) (clinical; 1000 mg): 1430 ng·h/mL; Cmax (clinical; 1000 mg, Cmax): 47.3 ng/mL; Cmax (clinical; 1200 mg): 50.9 (70.6) ng/mL; Cmax3 (clinical; 1200 mg): 210.0 (81.5) ng/mL; Cmax (clinical; 1200 mg, Cmax): 61.9 ng/mL; Cmax2 (clinical; 1500 mg): 103.0 (25.8) ng/mL; R_AUC (accumulation ratio, AUCss days 23–24 / AUC0-24h day 1) (clinical; 1500 mg): 0.87 (32.0); Tmax (clinical; 1500 mg): 1.92 (30.5) h; t1/2z (clinical; 1500 mg): 3.48 (12.8) h; λz (clinical; 1500 mg): 0.202 (13.3) 1/h; AUC(0-t) (clinical; 1500 mg, AUC0-24 h): 997 ng·h/mL; AUC(0-t) (clinical; 1500 mg, AUC0-t): 1190 ng·h/mL; AUC(0-inf) (clinical; 1500 mg): 1200 ng·h/mL; Cmax (clinical; 1500 mg, Cmax): 57.1 ng/mL; half-life (clinical; gMean terminal half-life): 3.33 to 7.57 h; time to Cmax after oral administration (clinical; po): 1.83 to 3.67 h; half-life (clinical; t1/2): 3 to 5 h; half-life (clinical; terminal half-life): 3.48 to 5.56 h; antitumor activity in xenograft models [1]: showed antitumor activities; IC50 (HER2): 3 nM; apparent oral clearance (CL/F) ([2]; fasted (n =12)): 3970 (1370-8890) L/h; apparent oral clearance (CL/F) ([2]; fed, high-fat breakfast (n =12)): 1360 (608-2340) L/h; Treatment ratio fed/fasted, AUC0-∞ ([2]; human, in vivo, 1000 mg): 269 (208-348) %; Treatment ratio fed/fasted, AUC0–t ([2]; human, in vivo, 1000 mg): 284 (219-368) %; Treatment ratio fed/fasted, Cmax ([2]; human, in vivo, 1000 mg): 228 (170-305) %; Tmax ([2]; human, 1000 mg, fasted (n =12)): 2.38 h; AUC(0-inf) ([2]; human, 1000 mg, fasted (n =12)): 331 ng·h/mL; AUC(0-t) ([2]; human, 1000 mg, fasted (n =12)): 311 ng·h/mL; Cmax ([2]; human, 1000 mg, fasted (n =12)): 70.3 ng/mL; half-life ([2]; human, 1000 mg, fasted (n =12)): 6.99 h; Tmax [2, 3]: 4.25 h; AUC(0-inf) [2, 3]: 814 ng·h/mL; AUC(0-t) [2, 3]: 797 ng·h/mL; Cmax [2, 3]: 139 ng/mL; half-life [2, 3]: 4.19 h
